{
  "source": "patent US20020165233A1",
  "about": "“Quinoxaline containing medicaments for post exposure prophylaxis of an HIV infection” (priority 1999, published 2002)",
  "tested_on": "RT-SHIV",
  "assay": "Quantitative virus isolation (QVI) from PBMC co-cultured with C8166 and viral RNA PCR of culture supernatant",
  "type": "in vivo, rhesus monkeys",
  "design": "key to viral RNA PCR of QVI culture supernatant: +=positive; −=negative",
  "protocol": "Nine rhesus monkeys (male, 2 years old, 2-3 kg) were seronegative for SIV, Simian T cell Leukemia Virus (STLV), B virus and Type D retroviruses. 15 mg/kg body weight of COMPOUND A was subcutaneously administered into animals twice a day (12 h interval) for 28 d. Animals were divided into three groups. All animals were intravenously administered with 100 TCID50 of RT-SHIV The first group consisted of three animals treated with COMPOUND A from 8 h post exposure for 28 d. The second group of animals was treated with COMPOUND A from 24 h post exposure for 28 d. The third group (control) received the solvent that was used to dissolve COMPOUND A (PEG400:glycerol:water=[…]) from 8 h post exposure for 28 d.\nBlood was collected from all the animals either just before or 2 h after the drug administration on 0, 3, 7, 10, 14, 21, 29 d post exposure in order to check the drug concentration, otherwise in intervals of 2 to 8 weeks. Biopsy of inguinal lymph nodes was conducted on 17 d or 18 d and 8 weeks post exposure in two animals per group. Cerebrospinal fluid (CSF) was collected from the animals just before biopsy.\nViral RNA was detected from 7 or 10 d post exposure up to 40 weeks post exposure in all plasma specimen from two animals (FIG. 2). […] While in two animals plasma viral RNA levels persisted around 10^5 copy/ml after a moderate reduction occurred at 4 weeks post exposure, viral RNA levels in one animal declined to about 10^3 copy/ml after 15 weeks post exposure (FIG. 2). The RT-SHIV infection in PIBMC was monitored by quantitative virus isolation (QVI) and quantitative PCR assay of proviral DNA. Serially diluted PBMC were co-cultured with C8166 to determine the minimal PBMC cell number to provoke a productive infection of C8166 cells. The number from the QVI test indicates infectious cells per one million PBMC. QVI results were consistent with plasma viral RNA levels. The numbers indicates the results of QVI. A + or − on the right indicates results of viral RNA PCR assay for the detection of virus in culture supernatant. +=positive, −=negative.",
  "key": {"[1]": {"details": "animal #1, 15 mg/kg s.c. b.i.d. 8h thru 28 d post exp, week 11 post exp."}, "[2]": {"details": "animal #3, 15 mg/kg s.c. b.i.d. 24h thru 28 d post exp., week 6 post exp."}, "[3]": {"details": "animal #3, 15 mg/kg s.c. b.i.d. 24h thru 28 d post exp., week 8 post exp."}, "[4]": {"details": "animal #3, 15 mg/kg s.c. b.i.d. 24h thru 28 d post exp., week 11 post exp."}, "[5]": {"details": "animal #4, 15 mg/kg s.c. b.i.d. 24h thru 28 d post exp., week 8 post exp."}, "[6]": {"details": "animal #10, 15 mg/kg s.c. b.i.d. 8h thru 28 d post exp, week 6 post exp."}, "[7]": {"details": "animal #10, 15 mg/kg s.c. b.i.d. 8h thru 28 d post exp, week 8 post exp."}, "[8]": {"details": "animal #10, 15 mg/kg s.c. b.i.d. 8h thru 28 d post exp, week 11 post exp."}, "[9]": {"details": "animal #11, 15 mg/kg s.c. b.i.d. 24h thru 28 d post exp., week 8 post exp."}, "[10]": {"details": "animal #11, 15 mg/kg s.c. b.i.d. 24h thru 28 d post exp., week 11 post exp."}},
  "data": [
    {"compound": "CC[C@H]1C(=O)Nc2ccc(F)cc2N1C(=O)OC(C)C", "note": "[Compound A, (3S)-ethyl-6-fluoro-4-isopropyloxycarbonyl-3,4-dihydroquinoxalin-2(1H)-one]", "values": [
      {"measurement": "viral RNA PCR of QVI culture supernatant", "setting": "animal #1, 15 mg/kg s.c. b.i.d. 8h thru 28 d post exp, week 8 post exp.", "result": "+"},
      {"measurement": "Quantitative virus isolation (QVI)", "setting": "[1]", "result": "4 infectious cells per one million PBMC"},
      {"measurement": "viral RNA PCR of QVI culture supernatant", "setting": "[1]", "result": "+"},
      {"measurement": "viral RNA PCR of QVI culture supernatant", "setting": "animal #1, 15 mg/kg s.c. b.i.d. 8h thru 28 d post exp, week 15 post exp.", "result": "−/−"},
      {"measurement": "viral RNA PCR of QVI culture supernatant", "setting": "animal #3, 15 mg/kg s.c. b.i.d. 24h thru 28 d post exp., week 2 post exp.", "result": "−/−"},
      {"measurement": "Quantitative virus isolation (QVI)", "setting": "[2]", "result": "16 infectious cells per one million PBMC"},
      {"measurement": "viral RNA PCR of QVI culture supernatant", "setting": "[2]", "result": "+"},
      {"measurement": "Quantitative virus isolation (QVI)", "setting": "[3]", "result": "16 infectious cells per one million PBMC"},
      {"measurement": "viral RNA PCR of QVI culture supernatant", "setting": "[3]", "result": "+"},
      {"measurement": "Quantitative virus isolation (QVI)", "setting": "[4]", "result": "16 infectious cells per one million PBMC"},
      {"measurement": "viral RNA PCR of QVI culture supernatant", "setting": "[4]", "result": "+"},
      {"measurement": "viral RNA PCR of QVI culture supernatant", "setting": "animal #3, 15 mg/kg s.c. b.i.d. 24h thru 28 d post exp., week 15 post exp.", "result": "−/−"},
      {"measurement": "viral RNA PCR of QVI culture supernatant", "setting": "animal #4, 15 mg/kg s.c. b.i.d. 24h thru 28 d post exp., week 2 post exp.", "result": "−/−"},
      {"measurement": "viral RNA PCR of QVI culture supernatant", "setting": "animal #4, 15 mg/kg s.c. b.i.d. 24h thru 28 d post exp., week 6 post exp.", "result": "−/−"},
      {"measurement": "Quantitative virus isolation (QVI)", "setting": "[5]", "result": "1 infectious cells per one million PBMC"},
      {"measurement": "viral RNA PCR of QVI culture supernatant", "setting": "[5]", "result": "+"},
      {"measurement": "viral RNA PCR of QVI culture supernatant", "setting": "animal #4, 15 mg/kg s.c. b.i.d. 24h thru 28 d post exp., week 11 post exp.", "result": "−/−"},
      {"measurement": "viral RNA PCR of QVI culture supernatant", "setting": "animal #4, 15 mg/kg s.c. b.i.d. 24h thru 28 d post exp., week 15 post exp.", "result": "−/−"},
      {"measurement": "viral RNA PCR of QVI culture supernatant", "setting": "animal #5, 15 mg/kg s.c. b.i.d. 8h thru 28 d post exp, week 2 post exp.", "result": "−/−"},
      {"measurement": "viral RNA PCR of QVI culture supernatant", "setting": "animal #5, 15 mg/kg s.c. b.i.d. 8h thru 28 d post exp, week 6 post exp.", "result": "−/−"},
      {"measurement": "viral RNA PCR of QVI culture supernatant", "setting": "animal #5, 15 mg/kg s.c. b.i.d. 8h thru 28 d post exp, week 8 post exp.", "result": "−/−"},
      {"measurement": "viral RNA PCR of QVI culture supernatant", "setting": "animal #5, 15 mg/kg s.c. b.i.d. 8h thru 28 d post exp, week 11 post exp.", "result": "−/−"},
      {"measurement": "viral RNA PCR of QVI culture supernatant", "setting": "animal #5, 15 mg/kg s.c. b.i.d. 8h thru 28 d post exp, week 15 post exp.", "result": "−/−"},
      {"measurement": "viral RNA PCR of QVI culture supernatant", "setting": "animal #10, 15 mg/kg s.c. b.i.d. 8h thru 28 d post exp, week 2 post exp.", "result": "−/−"},
      {"measurement": "Quantitative virus isolation (QVI)", "setting": "[6]", "result": "1 infectious cells per one million PBMC"},
      {"measurement": "viral RNA PCR of QVI culture supernatant", "setting": "[6]", "result": "+"},
      {"measurement": "Quantitative virus isolation (QVI)", "setting": "[7]", "result": "16 infectious cells per one million PBMC"},
      {"measurement": "viral RNA PCR of QVI culture supernatant", "setting": "[7]", "result": "+"},
      {"measurement": "Quantitative virus isolation (QVI)", "setting": "[8]", "result": "4 infectious cells per one million PBMC"},
      {"measurement": "viral RNA PCR of QVI culture supernatant", "setting": "[8]", "result": "+"},
      {"measurement": "viral RNA PCR of QVI culture supernatant", "setting": "animal #10, 15 mg/kg s.c. b.i.d. 8h thru 28 d post exp, week 15 post exp.", "result": "−/−"},
      {"measurement": "viral RNA PCR of QVI culture supernatant", "setting": "animal #11, 15 mg/kg s.c. b.i.d. 24h thru 28 d post exp., week 2 post exp.", "result": "−/−"},
      {"measurement": "viral RNA PCR of QVI culture supernatant", "setting": "animal #11, 15 mg/kg s.c. b.i.d. 24h thru 28 d post exp., week 6 post exp.", "result": "−/−"},
      {"measurement": "Quantitative virus isolation (QVI)", "setting": "[9]", "result": "4 infectious cells per one million PBMC"},
      {"measurement": "viral RNA PCR of QVI culture supernatant", "setting": "[9]", "result": "+"},
      {"measurement": "Quantitative virus isolation (QVI)", "setting": "[10]", "result": "4 infectious cells per one million PBMC"},
      {"measurement": "viral RNA PCR of QVI culture supernatant", "setting": "[10]", "result": "+"},
      {"measurement": "viral RNA PCR of QVI culture supernatant", "setting": "animal #11, 15 mg/kg s.c. b.i.d. 24h thru 28 d post exp., week 15 post exp.", "result": "−/−"}
    ]}
  ]
}
